# What was measured:
# human tyrosinase (hTYR) = molecular target: T1, human tyrosinase (hTYR) (Homo sapiens, UniProt P14679); assay: L‐DOPA oxidation assay for tyrosinase activity (MNT‐1 cell lysate); assay type: biochemical
# T1 construct: tyrosinase enzyme solution derived from MNT‐1 cells; endogenous in cells; host or cells: MNT-1 human melanoma cell line (crude lysate supernatant)
# T1 sequence (P14679 19-529): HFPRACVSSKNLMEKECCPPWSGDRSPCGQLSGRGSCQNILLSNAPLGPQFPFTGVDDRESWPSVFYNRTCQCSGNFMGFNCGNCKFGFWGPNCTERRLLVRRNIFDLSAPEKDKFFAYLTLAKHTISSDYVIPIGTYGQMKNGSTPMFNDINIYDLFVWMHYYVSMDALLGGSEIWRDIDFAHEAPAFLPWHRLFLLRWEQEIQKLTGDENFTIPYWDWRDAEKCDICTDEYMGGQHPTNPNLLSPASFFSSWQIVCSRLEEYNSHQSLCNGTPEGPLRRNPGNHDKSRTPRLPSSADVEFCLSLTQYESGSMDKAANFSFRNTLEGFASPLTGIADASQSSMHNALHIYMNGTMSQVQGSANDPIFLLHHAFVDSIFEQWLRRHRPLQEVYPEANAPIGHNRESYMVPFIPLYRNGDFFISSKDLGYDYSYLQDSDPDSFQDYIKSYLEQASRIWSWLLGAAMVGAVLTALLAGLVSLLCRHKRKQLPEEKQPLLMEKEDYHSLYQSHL
# Description: The hTYR‐mediated L‐DOPA oxidation assay was performed according to Winder and Harris. MNT‐1 cells were resuspended in 0.05 M sodium phosphate buffer (pH 6.9) and sonicated for 1 min. After incubation on ice for 3–5 min, the mixture underwent a second sonication. The lysate was centrifuged at 13 000 rpm for 15 min at 4°C, and the supernatant was collected and kept on ice.
# For the assay, 20 μL of crude enzyme solution and 80 μL sodium phosphate buffer were added to a 96‐well plate and centrifuged at 1000 rpm for 30 s. Subsequently, 2 μL of different concentrations of test compounds were added to each well, followed by centrifugation at 1000 rpm for 30 s. Finally, 100 μL L‐DOPA (final concentration 4 mM) was added to initiate the reaction. The microplate reader (Synergy H1 Hybrid Reader, BioTek) was used to monitor the reaction at 26°C, measuring absorbance at 475 nm every minute for 60 min. IC50 values were calculated using GraphPad software based on Vmax values from the kinetic curves.
# The L‐DOPA tyrosinase assay was performed using a tyrosinase enzyme solution derived from MNT‐1 cells in 50 mM sodium phosphate buffer (pH 6.9), with a substrate (L‐DOPA) concentration of 4 mM and various concentrations of inhibitors as indicated. Data represent mean ± standard deviation of three independent experiments.
# B16‐F10 cells = assay: Cell viability, B16‐F10; assay type: cell-based, murine; conditions: B16‐F10, 72 h, up to 50 μM
# Description: (§1) B16‐F10, MNT‐1, and HaCaT cells (5000 cells/well) were seeded into 96‐well plates and incubated overnight. Culture medium (50 μL) containing varying concentrations of KT‐939 was added to each well, and cells were incubated for 72 h. Cell viability was assessed using the Cell Viability Assay Kit (Vazyme Biotech), following the manufacturer's instructions. Luminescence was measured using a Synergy H1 Hybrid Reader. DMSO‐treated cells served as the control, and survival rates were calculated and analyzed with GraphPad software.
# (§2) B16‐F10, MNT‐1, and HaCaT cells were incubated with different concentrations of KT‐939 for 72 h. Cell viability was assessed and normalized to the DMSO‐treated control group.
# HaCaT cells = assay: Cell viability, HaCaT; assay type: cell-based, human; conditions: 72 h, up to 50 μM
# Description: as §1, §2
# [1] = DPPH radical scavenging assay
# Description: A DPPH radical scavenging assay kit (Solarbio) was used to assess antioxidant activity, following the manufacturer's instructions. Briefly, 10 μL of each test compound at the indicated concentrations was mixed with 190 μL DPPH solution in a 96‐well plate. Control wells (10 μL compound + 190 μL ethanol) and blank wells (10 μL solvent + 190 μL ethanol) were included. The reaction mixtures were gently shaken and incubated for 30 min at room temperature in the dark. Absorbance was measured at 515 nm using a Synergy H1 Hybrid Reader.
# A DPPH radical scavenging assay was conducted to evaluate the antioxidant activity of KT‐939 at various concentrations, with a maximum concentration of 10 mM in a 5‐fold dilution series. Data represent mean ± standard deviation of three independent experiments.
# MNT‐1 cells = assay: Melanin content in MNT‐1 cells after 6 days of treatment; assay type: cell-based, human
# Description: MNT‐1 cells were exposed to varying concentrations of test compounds for 6 days. After treatment, cells were harvested and lysed in RIPA buffer on ice for 20 min. Lysates were centrifuged at 13 000 rpm for 10 min at 4°C, and the supernatant was collected. Protein concentration was quantified using a BCA Protein Assay Kit (Thermo Fisher). To extract melanin, cell pellets were dissolved in 1 M NaOH and incubated for 3 h at 80°C. Absorbance at 405 nm was measured using a Synergy H1 Hybrid Reader. Melanin content was quantified by referencing a standard curve of synthetic melanin (maximum concentration 50 μg/mL, 2‐fold gradient dilution, 8 concentration points). Melanin content was normalized to protein concentration (μg melanin/mg protein), and IC50 values were calculated using GraphPad software.
# FIGURE 3 Inhibition of melanin production in MNT‐1 by KT‐939, Thiamidol, and 4‐butylresorcinol. MNT‐1 cells were treated with different concentrations of KT‐939, Thiamidol, or 4‐butylresorcinol for 6 days. The melanin content was quantified based on the standard curve of melanin, and the melanin content per mg of protein was utilized for IC50 calculations with GraphPad software.
compound,measurement,setting,value
"CC1(C(=O)Nc2nc(-c3ccc(O)cc3O)cs2)COC1 [KT‐939, N‐(4‐(2,4‐Dihydroxyphenyl) Thiazol‐2‐yl)‐3‐Methyloxetane‐3‐Carboxamide]",IC50,"human tyrosinase (hTYR); MNT‐1 lysate, L‐DOPA 4 mM, pH 6.9, read-out: IC50 against hTYR",70 nM
same,inhibition of hTYR,human tyrosinase (hTYR); at concentrations ≥ 0.4 μM,nearly complete inhibition
same,fold greater hTYR potency than 4‐butylresorcinol,"human tyrosinase (hTYR); ratio of IC50, vs 4‐butylresorcinol",~100 fold
same,fold greater hTYR potency than 377,"human tyrosinase (hTYR); ratio of IC50, vs 377",over 300 fold
same,fold greater hTYR potency than Thiamidol,"human tyrosinase (hTYR); ratio of IC50, vs Thiamidol",~ 4 fold
same,fold greater hTYR potency than resveratrol,"human tyrosinase (hTYR); ratio of IC50, vs resveratrol",~86 fold
same,cytotoxicity (cell viability),B16‐F10 cells,no significant cytotoxicity
same,cytotoxicity (cell viability),HaCaT cells,no significant cytotoxicity
same,DPPH clearance rate,[1]; 0.4 mM,8.9%
same,DPPH clearance rate,[1]; 2 mM,20.2%
same,DPPH clearance rate,[1]; 10 mM,43.2%
same,DPPH clearance rate,"[1]; as summed up in the discussion, concentration not given",exceeding 40%
same,IC50,"MNT‐1 cells; Homo sapiens, 144 h, MNT‐1, 6 days, read-out: IC50 of melanin production",360 nM
same,inhibition at 0.37 µM,"MNT‐1 cells; Homo sapiens, MNT-1, 144 h, 0.37 μM, 6 days, read-out: inhibition of melanin production",48.4%
same,inhibition at 1.1 µM,"MNT‐1 cells; Homo sapiens, MNT-1, 144 h, 1.1 μM, 6 days, read-out: inhibition of melanin production",63.3%
same,inhibition at 3.3 µM,"MNT‐1 cells; Homo sapiens, MNT-1, 144 h, 3.3 μM, 6 days, read-out: inhibition of melanin production",83.9%
same,inhibition at 10 µM,"MNT‐1 cells; Homo sapiens, MNT-1, 144 h, 10 μM, 6 days, read-out: inhibition of melanin production",86.7%
same,fold greater melanin inhibitory potency compared to Thiamidol,"MNT‐1 cells; ratio of IC50, vs Thiamidol",approximately 3.6 fold

# Source: PMC12569736 (Journal of Cosmetic Dermatology, 2025)
